Experimental data reported in patent US20130029942A1, “COMPOUNDS AND THERAPEUTICAL USES THEREOF” (Myrexis, Inc., priority 2003, published 2013).
Structures can show the parent of a compound that is named as a salt. Where two headings read alike, the source gives them in different places.

Columns and labels:
[1] = molecular target: tyrosine kinase of Epidermal Growth Factor Receptor (Homo sapiens, UniProt P00533); settings: Bridges et al. 1996; read-out: IC50 EGFR tyrosine kinase; cited from earlier work
Chain of tyrosine kinase of Epidermal Growth Factor Receptor (P00533 25-1210): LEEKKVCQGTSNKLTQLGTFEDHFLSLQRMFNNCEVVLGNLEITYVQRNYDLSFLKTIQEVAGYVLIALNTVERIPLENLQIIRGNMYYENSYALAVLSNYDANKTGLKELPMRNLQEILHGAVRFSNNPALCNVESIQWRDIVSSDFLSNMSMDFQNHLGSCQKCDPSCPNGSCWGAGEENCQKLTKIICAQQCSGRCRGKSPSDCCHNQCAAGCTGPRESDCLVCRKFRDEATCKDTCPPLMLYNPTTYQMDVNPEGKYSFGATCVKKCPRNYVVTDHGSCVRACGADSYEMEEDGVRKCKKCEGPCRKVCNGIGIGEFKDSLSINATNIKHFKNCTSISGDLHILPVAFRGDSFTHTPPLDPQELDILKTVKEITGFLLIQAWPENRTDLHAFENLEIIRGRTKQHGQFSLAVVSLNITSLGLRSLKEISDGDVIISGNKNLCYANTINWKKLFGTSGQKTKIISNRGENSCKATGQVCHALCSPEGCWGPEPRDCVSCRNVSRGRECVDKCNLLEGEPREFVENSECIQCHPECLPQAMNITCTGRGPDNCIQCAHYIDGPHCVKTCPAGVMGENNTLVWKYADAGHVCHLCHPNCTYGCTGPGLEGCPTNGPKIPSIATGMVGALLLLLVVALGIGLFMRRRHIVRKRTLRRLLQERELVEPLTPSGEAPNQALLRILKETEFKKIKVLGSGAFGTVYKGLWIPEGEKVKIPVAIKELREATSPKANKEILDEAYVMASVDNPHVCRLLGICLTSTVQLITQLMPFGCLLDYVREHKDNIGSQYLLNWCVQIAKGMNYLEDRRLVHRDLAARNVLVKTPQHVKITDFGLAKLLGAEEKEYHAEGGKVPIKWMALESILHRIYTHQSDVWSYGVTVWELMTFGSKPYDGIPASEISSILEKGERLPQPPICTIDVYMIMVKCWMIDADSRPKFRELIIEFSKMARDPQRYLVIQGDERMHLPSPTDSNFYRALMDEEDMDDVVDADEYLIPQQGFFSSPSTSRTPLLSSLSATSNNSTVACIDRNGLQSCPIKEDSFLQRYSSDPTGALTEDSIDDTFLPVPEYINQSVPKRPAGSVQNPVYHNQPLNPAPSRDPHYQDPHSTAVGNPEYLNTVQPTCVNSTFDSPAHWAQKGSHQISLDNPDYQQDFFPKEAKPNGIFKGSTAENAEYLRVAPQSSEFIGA

[2] = test system: MCF-7 cells; assay: Cytotoxicity (ATP-lite cell viability), MCF-7; assay type: cell-based; settings: Homo sapiens, MCF7; MCF-7, 72 hours
Procedure: (§1) Cytotoxicity of compounds in multidrug resistant cells can be determined by administering compounds to cell lines that overexpress the multidrug resistance pump MDR-1 and determining the viability of the cell lines.
(§2) NCI-ADR/Res, MCF-7, P388, and P388/ADR cell lines were obtained from American Type Culture Collection (Manassas, Va.) and maintained in RPMI-1640 media supplemented with 10% FCS, 10 units/ml penicillin and streptomycin, 2 mM Glutamax and 1 mM sodium pyruvate (Invitrogen Corporation, Carlsbad, Calif.). For compound testing, cells were plated in 96 well dishes at a concentration of 1.5×10^4 cells/well. Cells were allowed to adhere to the plate overnight and then incubated with compounds at final concentrations ranging from 0.13 nM to 10 uM for 72 hours. Cell viability was then assessed using the ATP-lite reagent (Perkin Elmer, Foster City, Calif.). Plates were read on a Wallac Topcount luminescence reader (Perkin Elmer, Foster City, Calif.) and the results graphed in Prism software (Graphpad Software, Inc., San Diego, Calif.). Non-linear regression with variable slope analysis was performed to obtain IC50 concentration values.
(§3) Example 1 compound, docetaxel, and vinblastine were tested for their ability to kill multidrug resistant cells by administering the compounds to NCI-ADR/Res, MCF-7 cells, P388 and P388/ADR cells and determining the viability of the cells.

[3] = test system: NCI-ADR/Res cells; assay: Cytotoxicity (ATP-lite cell viability), MDR-1 over-expressing NCI-ADR/Res; assay type: cell-based; settings: Homo sapiens, 72 hours
Procedure: as §1, §2, §3

[4] = test system: P388 cells; assay: Cytotoxicity (ATP-lite cell viability), P388; assay type: cell-based, murine; settings: Mus musculus; P388, 72 hours
Procedure: as §1, §2, §3

[5] = test system: P388/ADR cells; assay: Cytotoxicity (ATP-lite cell viability), MDR-1 over-expressing P388/ADR; assay type: cell-based; settings: Mus musculus, 72 hours
Procedure: as §1, §2, §3

[6] = test system: T-47D cells; assay: Caspase cascade activation / induction of apoptosis in T-47D cells (fluorogenic N-(Ac-DEVD)-N'-ethoxycarbonyl-R110 substrate); assay type: cell-based, human; settings: Homo sapiens, T47D
[7] = molecular target: tubulin (Bos taurus, UniProt P81947+Q6B856); assay: Inhibition of tubulin polymerization (DAPI fluorescence); assay type: biochemical; settings: MAP-rich tubulin, 30 minutes at 37° C.
Chain of tubulin (P81947 whole entry): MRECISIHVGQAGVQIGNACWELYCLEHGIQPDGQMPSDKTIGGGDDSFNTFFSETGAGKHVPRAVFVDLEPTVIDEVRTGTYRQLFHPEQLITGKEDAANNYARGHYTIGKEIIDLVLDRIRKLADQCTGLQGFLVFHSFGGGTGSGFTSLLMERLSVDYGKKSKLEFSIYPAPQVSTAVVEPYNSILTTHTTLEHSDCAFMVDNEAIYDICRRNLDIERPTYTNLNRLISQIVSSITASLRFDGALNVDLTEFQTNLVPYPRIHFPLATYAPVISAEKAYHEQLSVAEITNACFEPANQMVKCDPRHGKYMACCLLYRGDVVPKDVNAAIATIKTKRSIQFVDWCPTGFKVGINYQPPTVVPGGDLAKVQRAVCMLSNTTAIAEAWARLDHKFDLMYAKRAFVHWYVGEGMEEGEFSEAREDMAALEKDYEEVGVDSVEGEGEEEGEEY
Chain of tubulin (Q6B856 whole entry): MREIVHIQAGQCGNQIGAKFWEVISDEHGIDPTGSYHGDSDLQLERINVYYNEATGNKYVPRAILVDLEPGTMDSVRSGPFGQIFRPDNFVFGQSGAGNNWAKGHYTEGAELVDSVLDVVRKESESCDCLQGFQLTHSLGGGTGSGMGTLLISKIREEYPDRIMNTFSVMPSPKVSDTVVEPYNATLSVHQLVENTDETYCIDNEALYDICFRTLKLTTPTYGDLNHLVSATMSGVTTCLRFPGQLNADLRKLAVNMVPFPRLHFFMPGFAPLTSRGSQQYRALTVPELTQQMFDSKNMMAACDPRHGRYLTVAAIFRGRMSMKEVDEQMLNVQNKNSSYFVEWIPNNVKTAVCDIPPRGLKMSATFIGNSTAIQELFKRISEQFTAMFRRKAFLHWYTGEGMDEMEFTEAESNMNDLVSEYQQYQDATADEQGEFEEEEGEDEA
Procedure: Lyophilized tubulin (Cytoskeleton #ML113, 1 mg, MAP-rich) was assayed for the effect of the test compound on tubulin polymerization as measured by change in fluorescence for 4′,6-diamidino-2-phenylindole (DAPI) (Barron, D. M. et al. Analytical Biochem., 2003, 315, 49-56). 1 μl of serial dilutions of each test compound (from 100×DMSO stock) was added in 96 well plate format and preincubated for 30 minutes with 94 ul of the non-GTP supplemented tubulin supernatant. 5 μl of DAPI/GTP solution was added to initiate polymerization and incubated for 30 minutes at 37° C. Fluorescence was read with excitation 350 nm, emission wavelength 485 nm on a Tecan Spectraflour Plus. Polymerized tubulin (DMSO and with the tubulin stabilizer Taxol® (paclitaxel)) gives a higher DAPI fluorescence as compared to non-polymerized tubulin (vinblastine and colchicine used to determine baseline).

[8] = molecular target: T1, topoisomerase I (Homo sapiens, UniProt P11387); assay: Topoisomerase I activity assay (relaxation of supercoiled DNA, gel); settings: Form I DNA, varying concentrations, FIG. 2
T1 sequence (P11387 1-765): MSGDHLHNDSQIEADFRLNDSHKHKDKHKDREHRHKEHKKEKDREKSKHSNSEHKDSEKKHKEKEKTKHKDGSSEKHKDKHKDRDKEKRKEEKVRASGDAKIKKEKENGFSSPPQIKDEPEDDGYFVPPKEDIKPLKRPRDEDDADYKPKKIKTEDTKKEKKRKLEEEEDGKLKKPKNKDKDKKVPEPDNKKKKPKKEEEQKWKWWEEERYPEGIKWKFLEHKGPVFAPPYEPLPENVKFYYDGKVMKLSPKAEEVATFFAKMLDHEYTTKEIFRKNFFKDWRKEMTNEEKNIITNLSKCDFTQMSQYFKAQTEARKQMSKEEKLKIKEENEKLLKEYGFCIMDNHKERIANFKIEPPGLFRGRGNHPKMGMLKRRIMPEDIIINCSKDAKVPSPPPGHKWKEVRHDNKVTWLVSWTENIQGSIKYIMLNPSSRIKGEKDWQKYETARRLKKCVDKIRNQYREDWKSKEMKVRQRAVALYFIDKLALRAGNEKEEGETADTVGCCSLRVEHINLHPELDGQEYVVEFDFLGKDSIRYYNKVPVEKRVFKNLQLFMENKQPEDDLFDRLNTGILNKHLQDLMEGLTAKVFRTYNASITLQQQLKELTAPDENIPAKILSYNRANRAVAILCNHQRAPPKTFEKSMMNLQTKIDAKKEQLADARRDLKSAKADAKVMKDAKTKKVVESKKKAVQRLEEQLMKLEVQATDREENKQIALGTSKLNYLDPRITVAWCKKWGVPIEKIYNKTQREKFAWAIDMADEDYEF

[9] = test system: T-47D cells; assay: Inhibition of cell proliferation (GI50), CellTiter-Glo, T-47D; assay type: cell-based; settings: Homo sapiens, T47D; T-47D, 48 h; read-out: GI50
Procedure: (§4) T-47D, DLD, H1299, MX-1 and SW620 cells were grown and harvested as in Example 262. […] An aliquot of 45 μL of cells was added to a well of a 96-well microtiter plate containing 5 μL of a 10% DMSO in RPMI-1640 media solution without compound as the control sample for maximal cell proliferation (Lmax). The samples were mixed by agitation and then incubated at 37° C. for 48 h in a 5% CO2—95% humidity incubator. After incubation, the samples were removed from the incubator and 25 μL of CellTiter-Glo™ reagent (Promega) was added. The samples were mixed by agitation and incubated at room temeperature for 10-15 min. Plates were then read using a luminescent plate reader (Model SPECTRAfluor Plus, Tecan) to give Ltest values.
(§5) The samples were mixed by agitation and then incubated at 37° C. for 0.5 h in a 5% CO2—95% humidity incubator. After incubation, the samples were removed from the incubator and 25 μL of CellTiter-Glo™ reagent (Promega) was added. The samples were mixed by agitation and incubated at 37° C. for 10-15 min at room temperature in a 5% CO2—95% humidity incubator. Fluorescence was read as above, (LStart) defining luminescence for initial cell number used as baseline in GI50 determinations.

[10] = test system: DLD cells; assay: Inhibition of cell proliferation (GI50), CellTiter-Glo, DLD; assay type: cell-based; settings: Homo sapiens; DLD, 48 h; read-out: GI50
Procedure: as §4, §5

[11] = test system: H1299 cells; assay: Inhibition of cell proliferation (GI50), CellTiter-Glo, H1299; assay type: cell-based; settings: Homo sapiens, NCI-H1299, 48 h; read-out: GI50
Procedure: as §4, §5

[12] = test system: MX-1 cells; assay: Inhibition of cell proliferation (GI50), CellTiter-Glo, MX-1; assay type: cell-based; settings: Homo sapiens, MX1; MX-1, 48 h; read-out: GI50
Procedure: as §4, §5

[13] = test system: SW620 cells; assay: Inhibition of cell proliferation (GI50), CellTiter-Glo, SW620; assay type: cell-based; settings: Homo sapiens, SW-620; SW620, 48 h; read-out: GI50
Procedure: as §4, §5

[14] = 24 h, read-out: T-47D (24 hr) EC50 (nM)
[15] = read-out: Caspase activation (EC50 nM)
[16] = T-47D, 48 hr, read-out: T-47D (48 hr) EC50
[17] = Table III, time not given, repeats 24 hr or 48 hr T-47D values of Table I, read-out: Caspase activation (EC50 nM)
[18] = T-47D, 24 hr, read-out: T-47D (24 hr) EC50

Compound: COc1cc2nc(C)nc(Nc3cccc(Br)c3)c2cc1OC [R1=Me, R2=3′-Br, R3═H]
- IC50 [1]: > 10000 nM

Compound: CC[C@]1(O)C[C@@H]2CN(CCc3c([nH]c4ccccc34)[C@@](C(=O)OC)(c3cc4c(cc3OC)N(C)[C@H]3[C@@](O)(C(=O)OC)[C@H](OC(C)=O)[C@]5(CC)C=CCN6CC[C@]43[C@@H]65)C2)C1 [Vinblastine, vinblastine]
- IC50 [2]: 0.5 nM
- IC50 [3]: 3 nM
- IC50 [4]: 2.6 nM
- IC50 [5]: 2.8 nM

Compound: COc1cc2nc(N)nc(Nc3cccc(Br)c3)c2cc1OC [R1═NH2, R2=3′-Br, R3═H]
- IC50 [1]: > 10000 nM

Compound: COc1ccc(N(C)c2nc(C)nc3ccccc23)cc1 [Example 72, (4-Methoxy-phenyl)-methyl-(2-methyl-quinazolin-4-yl)-amine hydrochloride]
- EC50 [6, 14]: 2 nM
- EC50 ([6]; 48 h, read-out: T-47D (48 hr) EC50 (nM)): 2 nM
- EC50 [6, 15]: 2 nM
- IC50 [7]: < 1000 nM

Compound: COc1ccc(N(C)c2nccc3ccccc23)cc1 [Example 65, (Isoquinolin-1-yl)-(4-methoxy-phenyl)-methyl-amine]
- EC50 [6, 16]: 599 nM
- EC50 [6, 17]: 599 nM
- IC50 [7]: 10000 nM

Compound: COc1ccc(OC)c(N(C)c2nc(Cl)nc3ccccc23)c1 [Example 42, (2-Chloro-quinazolin-4-yl)-(2,5-dimethoxy-phenyl)-methyl-amine]
- EC50 [6, 18]: 282 nM
- EC50 [6, 16]: 265 nM
- EC50 [6, 17]: 282 nM
- IC50 [7]: 5000 nM

Compound: COc1ccccc1N(C)c1nc(Cl)nc2ccccc12 [Example 44, (2-Chloro-quinazolin-4-yl)-(2-methoxy-phenyl)-methyl-amine]
- EC50 [6, 16]: 501 nM
- EC50 [6, 17]: 501 nM
- IC50 [7]: 10000 nM

Compound: COc1cc([C@@H]2c3cc4c(cc3[C@@H](O[C@@H]3O[C@@H]5CO[C@@H](C)O[C@H]5[C@H](O)[C@H]3O)[C@H]3COC(=O)[C@H]23)OCO4)cc(OC)c1O [VP-16, etoposide, reference compound]
- Effect on topoisomerase I-dependent relaxation of supercoiled DNA [8]: no apparent effect on topoisomerase I activity

Compound: COc1ccc(N(C)c2nc(NC/C=C(\C)CCC=C(C)C)nc3ccccc23)cc1 [Example 13, N^2-(3,7-Dimethyl-octa-2,6-dienyl)-N^4-(4-methoxy-phenyl)-N^4-methyl-quinazoline-2,4-diamine]
- EC50 [6, 18]: 260 nM
- EC50 [6, 17]: 260 nM
- IC50 [7]: 6000 nM

Compound: CC(=O)O[C@@]12CO[C@@H]1C[C@H](O)[C@@]1(C)C(=O)[C@H](O)C3=C(C)[C@@H](OC(=O)[C@H](O)[C@@H](NC(=O)OC(C)(C)C)c4ccccc4)C[C@@](O)([C@@H](OC(=O)c4ccccc4)[C@H]21)C3(C)C [Docetaxel, docetaxel]
- IC50 [2]: 2 nM
- IC50 [3]: 410 nM
- IC50 [4]: 7 nM
- IC50 [5]: 127 nM

Compound: COc1ccc(N(C)c2nc(Cl)nc3ccccc23)cn1 [Example 36, (2-Chloro-quinazolin-4-yl)-(6-methoxy-pyridin-3-yl)-methyl-amine]
- EC50 [6, 18]: 6 nM
- EC50 [6, 17]: 6 nM
- GI50 [9]: 111 nM
- GI50 [10]: 89 nM
- GI50 [11]: 53 nM
- GI50 [12]: 73 nM
- GI50 [13]: 70 nM
- IC50 [7]: < 1000 nM

Compound: CN(c1ccccc1)c1nc(Cl)nc2ccccc12 [Example 6, (2-Chloro-quinazolin-4-yl)-phenyl-methyl-amine]
- EC50 [6, 14]: 219 nM
- EC50 [6, 15]: 219 nM
- IC50 [7]: 4000 nM

Compound: Cc1ccc(N(C)c2ncnc3ccccc23)cc1 [Example 35, (4-Methyl-phenyl)-methyl-quinazolin-4-yl-amine]
- EC50 [6, 18]: 141 nM
- EC50 [6, 17]: 141 nM
- IC50 [7]: 4000 nM

Compound: COc1ccc(Nc2nc(Cl)nc3ccccc23)cc1 [Example 7, (2-Chloro-quinazolin-4-yl)-(4-methoxy-phenyl)-amine]
- EC50 [6, 18]: > 10000 nM
- EC50 [6, 16]: > 10000 nM
- EC50 [6, 17]: > 10000 nM
- GI50 [9]: > 10000 nM
- GI50 [10]: > 10000 nM
- GI50 [11]: > 10000 nM
- GI50 [12]: > 10000 nM
- GI50 [13]: > 10000 nM
- IC50 [7]: > 50000 nM
